Laboratory results from US11566030B2, “Substituted 2,6-dihydropyrrolo[3,4-c]pyrazoles as pyruvate kinase activators” (priority 2021, dated 2023).
Where two headings read alike, the source gives them in different places.

What was measured:
[1] = test system: mouse model of beta-thalassemia; conditions: cited from earlier work
[2] = molecular target: T1, Human pyruvate kinase R (PKR) (Homo sapiens, UniProt P30613); assay: Biochemical assay for activation of pyruvate kinase R (Kinase-Glo luminescence, ATP generation); conditions: for Emax: read-out: PKR % activation, maximal activation level achieved with each compound relative to the activation level achieved by AG-348 @ 10 μM
T1 construct: Human pyruvate kinase R (PKR), residues 14-574; 6xHis-8xArg-SUMO (N, cleaved yes); host or cells: E. coli
T1 sequence (P30613 14-574): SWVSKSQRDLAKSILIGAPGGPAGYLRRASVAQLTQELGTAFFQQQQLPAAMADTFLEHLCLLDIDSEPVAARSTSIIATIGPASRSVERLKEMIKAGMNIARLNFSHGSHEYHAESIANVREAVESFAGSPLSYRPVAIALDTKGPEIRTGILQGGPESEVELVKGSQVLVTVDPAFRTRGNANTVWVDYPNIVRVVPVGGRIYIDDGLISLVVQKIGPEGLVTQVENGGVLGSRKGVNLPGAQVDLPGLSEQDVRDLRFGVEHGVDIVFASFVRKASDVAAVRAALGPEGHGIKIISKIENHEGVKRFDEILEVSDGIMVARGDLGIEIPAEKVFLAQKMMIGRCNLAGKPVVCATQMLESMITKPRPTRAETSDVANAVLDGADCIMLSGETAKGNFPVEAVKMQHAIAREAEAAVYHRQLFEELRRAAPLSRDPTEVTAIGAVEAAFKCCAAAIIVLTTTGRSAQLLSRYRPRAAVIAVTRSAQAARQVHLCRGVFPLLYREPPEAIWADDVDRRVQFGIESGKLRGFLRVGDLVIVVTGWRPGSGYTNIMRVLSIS
Summary of the method: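 Recombinant human PKR (residues 14-574) expressed in E. coli with His-Arg-SUMO tag, tag cleaved, purified by Ni-NTA, anion exchange and size exclusion. Activation read as ATP generation by Kinase-Glo luminescence.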

[3] = PKR AC50 (nM), 0.1 nM PKR, 0.3 mM ADP, 0.1 mM PEP, 1% DMSO

Emax [2] [%]	AC50 [2, 3] [nM]	Compound	also measured
–	–	O=C(c1ccc(NS(=O)(=O)c2cccc3cccnc23)cc1)N1CCN(CC2CC2)CC1 [AG-348, Mitapivat]	ATP levels [1]: increased; PK activity [1]: increased; RBC parameters [1]: improved
0	–	Cc1cn(CC(F)(F)F)nc1S(=O)(=O)n1cc2c(n1)CN(C(=O)[C@@H](CO)c1ccccc1)C2 [Compound 67, (2R)-3-hydroxy-1-{2-[4-methyl-1-(2,2,2-trifluoroethyl)pyrazol-3-ylsulfonyl]-4H,6H-pyrrolo[3,4-c]pyrazol-5-yl}-2-phenylpropan-1-one]	–
108	10	O=C([C@H](CO)c1ccccc1Cl)N1Cc2cn(S(=O)(=O)c3cnn(CC(F)(F)F)c3)nc2C1 [Compound 47, (2S)-2-(2-chlorophenyl)-3-hydroxy-1-[2-[1-(2,2,2-trifluoroethyl)pyrazol-4-ylsulfonyl]-4H,6H-pyrrolo[3,4-c]pyrazol-5-yl]propan-1-one]	–
60	70	O=C([C@H](CO)c1ccccc1F)N1Cc2cn(S(=O)(=O)c3ccn(CC(F)(F)F)n3)nc2C1 [Compound 62, (2S)-2-(2-fluorophenyl)-3-hydroxy-1-{2-[1-(2,2,2-trifluoroethyl)pyrazol-3-ylsulfonyl]-4H,6H-pyrrolo[3,4-c]pyrazol-5-yl}propan-1-one]	–
72	440	O=C([C@@H](CO)c1cccc(F)c1F)N1Cc2cn(S(=O)(=O)c3cnn(CC(F)(F)F)c3)nc2C1 [Compound 74, (2R)-2-(2,3-difluorophenyl)-3-hydroxy-1-{2-[1-(2,2,2-trifluoroethyl)pyrazol-4-ylsulfonyl]-4H,6H-pyrrolo[3,4-c]pyrazol-5-yl}propan-1-one]	–
89	82	C[C@H](O)[C@@H](C(=O)N1Cc2cn(S(=O)(=O)c3cnn(CC(F)(F)F)c3)nc2C1)c1ccccc1 [Compound 50, (2S,3S)-3-hydroxy-2-phenyl-1-{2-[1-(2,2,2-trifluoroethyl)pyrazol-4-ylsulfonyl]-4H,6H-pyrrolo[3,4-c]pyrazol-5-yl}butan-1-one]	–
62	–	Cc1cn(CC(F)F)nc1S(=O)(=O)n1cc2c(n1)CN(C(=O)[C@@H](CO)c1ccccc1Cl)C2 [Compound 81, (2R)-2-(2-chlorophenyl)-1-{2-[1-(2,2-difluoroethyl)-4-methylpyrazol-3-ylsulfonyl]-4H,6H-pyrrolo[3,4-c]pyrazol-5-yl}-3-hydroxypropan-1-one]	AC50 [2]: 500 nM
121	6.9	O=C([C@H](CO)c1ccccc1F)N1Cc2cn(S(=O)(=O)c3ccn(CC(F)F)n3)nc2C1 [Compound 12, (2S)-1-(2-{[1-(2,2-difluoroethyl)-1H-pyrazol-3-yl]sulfonyl}-2H,4H,5H,6H-pyrrolo[3,4-c]pyrazol-5-yl)-2-(2-fluorophenyl)-3-hydroxypropan-1-one]	–
